# Test results from patent US20210115044A1, “TRICYCLIC HETEROCYCLE COMPOUNDS USEFUL AS HIV INTEGRASE INHIBITORS” (Merck Sharp & Dohme Corp., priority 2018, published 2021).
# Like-named read-outs stand apart in the source and are kept apart here.
# Test system: HIV-1 (H9/IIIB strain)
# Assay: Multiple round HIV-1 infection assay in MT4-GFP cells (wild type cell assay, Viking)
# Assay type: cell-based
# Conditions: MT4-GFP cells infected with HIV-1 H9/IIIB, inhibition of reproductive ratio R0, ~48 h and ~72 h post-infection
# Experimental: The antiviral activity of the Examples herein was assessed in an assay that measures the rate of replication of HIV in cell culture, and performed according to the following procedure. HIV-1 replication was monitored using MT4-gag-GFP clone D3 (hereafter designated MT4-GFP), which are MT-4 cells modified to harbor a GFP reporter gene, the expression of which is dependent on the HIV-1 expressed proteins tat and rev. Productive infection of an MT4-GFP cell with HIV-1 results in GFP expression approximately 24 h post-infection. MT4-GFP cells were maintained at 37° C./5% CO2/90% relative humidity in RPMI 1640 supplemented with 10% fetal bovine serum, 100 U/ml penicillin/streptomycin, and 400 μg/ml G418 to maintain the reporter gene. For infections, MT4-GFP cells were placed in the same medium lacking G418 and infected overnight with HIV-1 (H9/IIIB strain) virus at an approximate multiplicity of infection of 0.01 in the same incubation conditions. Cells were then washed and re-suspended in either RPMI 1640 at 2×10^5 cells/mL (0% NHS condition) or 100% normal human serum (NHS) at 2×10^5 cells/mL (100% NHS condition). Compound plates were prepared by dispensing compounds dissolved in DMSO into wells of 384 well poly-D-lysine-coated plates (0.2 μl/well) using an ECHO acoustic dispenser. Each compound was tested in a 10-point serial 3-fold dilution (typical final concentrations: 1050 nM-0.05 nM for 0% NHS condition or 42 μM-2.13 nM for 100% NHS condition). Controls included no inhibitor (DMSO only) and a combination of three antiviral agents (efavirenz, indinavir, an in-house integrase strand transfer inhibitor at final concentrations of 4 μM each). Cells were added ([…]) to compound plates and the infected cells were maintained at 37° C./5% CO2/90% relative humidity.
# Infected cells were quantified at two time points, ˜48 h and ˜72 h post-infection, by counting the number of green cells in each well using an Acumen eX3 scanner. The increase in the number of green cells over ˜24 h period gives the reproductive ratio, R0, which is typically 5-15 and has been shown experimentally to be in logarithmic phase (data not shown). Inhibition of R0 is calculated for each well, and IC50s determined by non-linear 4-parameter curve fitting.
# [1] = 0% NHS condition (RPMI 1640), read-out: WILD TYPE CELL ASSAY Viking IP (0% NHS)
# [2] = 100% normal human serum condition, read-out: WILD TYPE CELL ASSAY Viking IP (100% NHS)
# [3] = Human immunodeficiency virus 1, IIIB, 0% NHS condition (RPMI 1640), read-out: WILD TYPE CELL ASSAY Viking IP (0% NHS)
# [4] = Human immunodeficiency virus 1, IIIB, 100% normal human serum condition, read-out: WILD TYPE CELL ASSAY Viking IP (100% NHS)
Structure (SMILES),IC50 [1],IC50 [2],IC50 [3],IC50 [4]
"CCC12CC(O)c3c(C(=O)NCc4c(F)ccc(F)c4F)c(=O)c(O)c(n31)C(=O)N(C)C2 (single isomer, unassigned) [Compound 50]",2.9 nM,25.5 nM,,
"CCN1CC2(CCOC(F)F)CC(O)c3c(C(=O)NCc4ccc(F)cc4F)c(=O)c(O)c(n32)C1=O (single isomer, unassigned) [Compound 1]",7.6 nM,237 nM,,
CCC12CC(O)c3c(C(=O)NCc4c(F)ccc(F)c4F)c(=O)c(O)c(n31)C(=O)N(C)C2 (stereo not shown) [Compound 51],,32.2 nM,1.7 nM,
"CC1N(C)C(=O)c2c(O)c(=O)c(C(=O)NCc3ccc(F)cc3F)c3n2C1(C)CC3O (single isomer, unassigned) [Compound 71]",3.1 nM,91.1 nM,,
"CCC12CC(O)c3c(C(=O)NCc4c(F)ccc(Cl)c4F)c(=O)c(O)c(n31)C(=O)N(C)C2 (single isomer, unassigned) [Compound 53]",,4370 nM,2.6 nM,
"CN1CC2(C)CC(O)c3c(C(=O)NCc4cccc(Cl)c4F)c(=O)c(O)c(n32)C1=O (single isomer, unassigned) [Compound 34]",2.1 nM,178 nM,,
CN1CC2(C)CC(O)c3c(C(=O)NCc4ccc(F)cc4)c(=O)c(O)c(n32)C1=O (stereo not shown) [Compound 24],1.2 nM,201 nM,,
"CCN1CC2(COC)CC(O)c3c(C(=O)NCc4c(F)cc(F)cc4F)c(=O)c(O)c(n32)C1=O (single isomer, unassigned) [Compound 62]",2.4 nM,60.5 nM,,
CCC12CC(O)c3c(C(=O)NCc4c(F)ccc(Cl)c4F)c(=O)c(O)c(n31)C(=O)N(C)C2 (stereo not shown) [Compound 55],,93.6 nM,2.2 nM,
"CCN1CC2(COC)CC(O)c3c(C(=O)NCc4c(F)cc(F)cc4F)c(=O)c(O)c(n32)C1=O (single isomer, unassigned) [Compound 61]",,,2.3 nM,95.9 nM
CCC12CC(O)c3c(C(=O)NCc4c(F)ccc(F)c4F)c(=O)c(O)c(n31)C(=O)N(C)C2 (stereo not shown) [Compound 52],2.7 nM,150 nM,,
"CC1N(C)C(=O)c2c(O)c(=O)c(C(=O)NCc3ccc(F)cc3F)c3n2C1(C)CC3O (single isomer, unassigned) [Compound 66]",1.4 nM,32.3 nM,,
CN1CC2(C)CC(O)c3c(C(=O)NCc4c(F)ccc(Cl)c4F)c(=O)c(O)c(n32)C1=O (stereo not shown) [Compound 31],,268 nM,1.7 nM,
"CC1C(O)c2c(C(=O)NCc3ccc(F)cc3F)c(=O)c(O)c3n2C1(C)CN(C)C3=O (single isomer, unassigned) [Compound 73]",2.3 nM,387 nM,,
"CC1C(O)c2c(C(=O)NCc3ccc(F)cc3F)c(=O)c(O)c3n2C1(C)CN(C)C3=O (single isomer, unassigned) [Compound 74]",1.6 nM,38.4 nM,,
CCN1CC2(COC)CC(O)c3c(C(=O)NCc4c(F)cc(F)cc4F)c(=O)c(O)c(n32)C1=O (stereo not shown) [Compound 64],2.9 nM,2740 nM,,
"CCC12CC(O)c3c(C(=O)NCc4cccc(Cl)c4F)c(=O)c(O)c(n31)C(=O)N(C)C2 (single isomer, unassigned) [Compound 42]",2.8 nM,59.3 nM,,
"CCN1CC2(COC)CC(O)c3c(C(=O)NCc4ccc(F)cc4F)c(=O)c(O)c(n32)C1=O (single isomer, unassigned) [Compound 58]",2.3 nM,270 nM,,
CCC12CC(O)c3c(C(=O)NCc4c(F)ccc(Cl)c4F)c(=O)c(O)c(n31)C(=O)N(C)C2 (stereo not shown) [Compound 56],3.4 nM,891 nM,,

Structure (SMILES),IC50 [1],IC50 [2],IC50 [3],IC50 [4]
"CC1C(O)c2c(C(=O)NCc3ccc(F)cc3F)c(=O)c(O)c3n2C1(C)CN(C)C3=O (single isomer, unassigned) [Compound 79]",4.5 nM,942 nM,,
"CCC12CC(O)c3c(C(=O)NCc4ccc(F)cc4F)c(=O)c(O)c(n31)C(=O)N(C)C2 (single isomer, unassigned) [Compound 40]",1.9 nM,39.1 nM,,
"CCN1CC2(COC)CC(O)c3c(C(=O)NCc4ccc(F)cc4F)c(=O)c(O)c(n32)C1=O (single isomer, unassigned) [Compound 60]",7.1 nM,1260 nM,,
"CC1C(O)c2c(C(=O)NCc3ccc(F)cc3F)c(=O)c(O)c3n2C1(C)CN(C)C3=O (single isomer, unassigned) [Compound 75]",2.5 nM,172 nM,,
"CN1CC2(C)CC(O)c3c(C(=O)NCc4c(F)cc(F)cc4F)c(=O)c(O)c(n32)C1=O (single isomer, unassigned) [Compound 26]",2.1 nM,107 nM,,
CN1CC2(C)CC(O)c3c(C(=O)NCc4c(F)cc(F)cc4F)c(=O)c(O)c(n32)C1=O (stereo not shown) [Compound 28],1 nM,129 nM,,
"CC1N(C)C(=O)c2c(O)c(=O)c(C(=O)NCc3ccc(F)cc3F)c3n2C1(C)CC3O (single isomer, unassigned) [Compound 65]",1.7 nM,107 nM,,
"CC1N(C)C(=O)c2c(O)c(=O)c(C(=O)NCc3ccc(F)cc3F)c3n2C1(C)CC3O (single isomer, unassigned) [Compound 72]",1.3 nM,15.8 nM,,
CCN1CC2(COC)CC(O)c3c(C(=O)NCc4c(F)cc(F)cc4F)c(=O)c(O)c(n32)C1=O (stereo not shown) [Compound 63],,9300 nM,2.9 nM,
"CCC12CC(O)c3c(C(=O)NCc4cccc(Cl)c4F)c(=O)c(O)c(n31)C(=O)N(C)C2 (single isomer, unassigned) [Compound 41]",2.2 nM,30.4 nM,,
"CCC12CC(O)c3c(C(=O)NCc4cccc(Cl)c4F)c(=O)c(O)c(n31)C(=O)N(C)C2 (single isomer, unassigned) [Compound 43]",3.7 nM,1270 nM,,
"CC1N(C)C(=O)c2c(O)c(=O)c(C(=O)NCc3ccc(F)cc3F)c3n2C1(C)CC3O (single isomer, unassigned) [Compound 69]",1.9 nM,77.5 nM,,
"CCC12CC(O)c3c(C(=O)NCc4ccc(F)cc4F)c(=O)c(O)c(n31)C(=O)N(C)C2 (single isomer, unassigned) [Compound 38]",1.2 nM,32.5 nM,,
"CCC12CC(O)c3c(C(=O)NCc4c(F)ccc(F)c4F)c(=O)c(O)c(n31)C(=O)N(C)C2 (single isomer, unassigned) [Compound 49]",,1020 nM,2.6 nM,
"CN1CC2(C)CC(O)c3c(C(=O)NCc4c(F)ccc(Cl)c4F)c(=O)c(O)c(n32)C1=O (single isomer, unassigned) [Compound 30]",2.1 nM,410 nM,,
"CCN1CC2(COC)CC(O)c3c(C(=O)NCc4ccc(F)cc4F)c(=O)c(O)c(n32)C1=O (single isomer, unassigned) [Compound 57]",3.1 nM,9970 nM,,
"CN1CC2(C)CC(O)c3c(C(=O)NCc4cccc(Cl)c4F)c(=O)c(O)c(n32)C1=O (single isomer, unassigned) [Compound 33]",,1200 nM,3 nM,
CN1CC2(C)CC(O)c3c(C(=O)NCc4ccc(F)cc4)c(=O)c(O)c(n32)C1=O (stereo not shown) [Compound 23],,,1.9 nM,121 nM
CN1CC2(C)CC(O)c3c(C(=O)NCc4cccc(Cl)c4F)c(=O)c(O)c(n32)C1=O (stereo not shown) [Compound 35],,,2.1 nM,116 nM
